Tests used:
Soil tests = conditions: 5 g dried soil, 20 mL host in dichloromethane, no pre-treatment or pre-concentration
Procedure: Soil was taken front the top 15 cm of the garden bed outside the Chemistry Building at the University of Tasmania and dried in the oven at 40° C. for approximately 60 hours. This soil was then spiked with 10 ppm PFOA: Two 50 g dried soil samples were transferred into two separate 1 L polypropylene containers. One sample was combined with a dichloromethane-PFOA solution (200 mL of 6×10^−6 M PFOA in DCM) and the other was combined with only dichloromethane (200 mL). The solutions were left to evaporate. 5 g of the resulting samples was transferred to high density polyethylene tubes.
Combinations of sensor molecule (9) in different organic solvents were added to spiked and control samples, and the results were compared. Water was also added to see if a biphasic system was beneficial for extraction from soil. • A=20 mL dichloromethane+medium chain sensor (9) • B=10 mL of water-->20 mL dichloromethane+medium chain sensor (9) • C=20 mL ethyl acetate+medium chain sensor (9) • D=20 mL toluene+medium chain sensor (9)
Dried soil samples (5 g) were also combined with 20 mL of host (9) in dichloromethane and shaken to show a colour change observable in the solvent.

[1] = RGB response curve, high PFCA concentration; conditions: host 5.01×10^−6 M, dichloromethane
From the text: The present inventors investigated the colorimetric responses for host (12) with “high” concentrations of PFCA (where [host]<[guest]), and “low” concentrations of PFCA (where [host]>[guest]). Generally, RGB response values will increase with increasing concentrations of PFCA until the host has been saturated; beyond the saturation limit, RGB response values are similar. When there was an excess of guest, the response values could only be used as a threshold indication for PFCA concentrations.
RGB response curves were established by combining solutions of host (12) (5.01×10^−6 M) with solutions of PFOA (0-16 ppm, 3.86×10^−5 M) in dichloromethane. […] Thus, when establishing a calibration curve, the relative proportion of free host to host−PFCA complex limiting the variability of colour response must be considered for the application.
For the “high” PFCA concentration experiment, the PFOA generated calibration curve (y=0.0401 ln(x)+0.2366, R^2=0.9677) (FIG. 17) begins to level out at ca. 2 ppm. Above that concentration, the RGB response values are difficult to differentiate.

| Structure (SMILES) | colour change with soil sample (Soil tests) | PFOA concentration at which calibration curve begins to level out [1] |
| --- | --- | --- |
| O=C(Nc1ccccc1-c1c2nc(c(-c3ccccc3NC(=O)C(F)(F)C(F)(F)C(F)(F)C(F)(F)C(F)(F)C(F)(F)C(F)(F)F)c3ccc([nH]3)c(-c3ccccc3NC(=O)C(F)(F)C(F)(F)C(F)(F)C(F)(F)C(F)(F)C(F)(F)C(F)(F)F)c3nc(c(-c4ccccc4NC(=O)C(F)(F)C(F)(F)C(F)(F)C(F)(F)C(F)(F)C(F)(F)C(F)(F)F)c4ccc1[nH]4)C=C3)C=C2)C(F)(F)C(F)(F)C(F)(F)C(F)(F)C(F)(F)C(F)(F)C(F)(F)F [host (9), α,α,α,α-5,10,15,20-tetrakis(2-(pentadecafluorooctanoylamino)phenyl)porphyrin] | discernible by the naked eye |  |
| O=C(Nc1ccccc1-c1c2nc(c(-c3ccccc3NC(=O)C(F)(F)C(F)(F)C(F)(F)C(F)(F)C(F)(F)C(F)(F)C(F)(F)C(F)(F)C(F)(F)C(F)(F)C(F)(F)F)c3ccc([nH]3)c(-c3ccccc3NC(=O)C(F)(F)C(F)(F)C(F)(F)C(F)(F)C(F)(F)C(F)(F)C(F)(F)C(F)(F)C(F)(F)C(F)(F)C(F)(F)F)c3nc(c(-c4ccccc4NC(=O)C(F)(F)C(F)(F)C(F)(F)C(F)(F)C(F)(F)C(F)(F)C(F)(F)C(F)(F)C(F)(F)C(F)(F)C(F)(F)F)c4ccc1[nH]4)C=C3)C=C2)C(F)(F)C(F)(F)C(F)(F)C(F)(F)C(F)(F)C(F)(F)C(F)(F)C(F)(F)C(F)(F)C(F)(F)C(F)(F)F [host (12), α,α,α,α-5,10,15,20-tetrakis(2-(tricosafluorododecanoylamino)phenyl) porphyrin] |  | ca. 2 ppm |
